Assay results reported in patent US12103983B2, “Compound and angiogenic agent comprising same” (HiPep Laboratories, priority 2018, dated 2024).
Bridge positions count the residues as written; N and C are the ends. Square brackets hold non-standard residues; d marks the D form. Peptide text beside a SMILES is read from it. AEEA = NCCOCCOCC(=O)O

Test system: endogenous cellular enzyme
Assay: Stability test against endogenous cellular enzyme (HUVEC cell lysate)
Type: in vitro ADME, human
Settings: 37° C., after 6 hours of the assay
Procedure: In order to test retention of the effect, and usefulness as a drug, each peptide was subjected to a stability test against endogenous cellular enzyme.
Human vascular endothelial cells (HUVECs (Human Umbilical Vein Endothelial Cells, Promocell GmbH.)) were used. Cryopreserved HUVECs were cultured for 2 days in Endothelial Cell Growth Medium (Promocell GmbH.). The cells were detached and collected by a conventional method using trypsin-EDTA, and washed with H2O, followed by addition of Lysis Buffer for Enzyme extraction (5 mL of TBS pH 7.5, 5 mL of Triton X100 (trade name), 40 mL of H2O with cOmplete mini, manufactured by Roche) thereto. The resulting mixture was left to stand on ice for 30 minutes to lyse the cells. The resulting cell lysate was centrifuged at 13,000 rpm at 4° C. for 3 min, and the supernatant was collected. The protein concentration was measured at A280 (Nano drop, Thermofischer scientific), and then adjusted to 2 mg/mL to prepare a protein solution for an assay.
In each of PCR tubes, 50 μL of each of four kinds of AGP solutions (2 mg/mL)+20 μL of the cell lysate (2 mg/mL)+30 μL of H2O were mixed together, and the resulting mixtures were incubated at 37° C. in an incubator for 0, 1, 3, or 6 hours. Thereafter, each mixture was heated in a hot water bath at 90° C. for 5 minutes to inactivate enzyme, and then subjected to LC-MS analysis. The remaining peptide was quantified based on the area value of the peak detected with UV 210 nm in LC.

| SMILES | remaining peptide / degradation (in words) |
| --- | --- |
| CC(C)CC1NC(=O)CNC(=O)C(Cc2ccccc2)NC(=O)C(C(C)C)NC(=O)C(C(C)C)NC(=O)C(CO)NC(=O)COCCOCCNC(=O)C(N)CSSCC(C(N)=O)NC(=O)CNC(=O)C(CCCNC(=N)N)NC1=O (stereo not drawn) [cAGP3, Cyclic(Cys-O2Oc-SVVFGLR-G-Cys)-NH2] (H-C[AEEA]SVVFGLRGC-NH2; disulfide 1-11; configuration not given here) | remained almost without degradation |
| CC(C)CC1NC(=O)CNC(=O)C(Cc2ccccc2)NC(=O)C(C(C)C)NC(=O)C(C(C)C)NC(=O)C(CO)NC(=O)COCCOCCNC(=O)C(N)CSSCC(C(N)=O)NC(=O)CNC(=O)C(CCCNC(=N)N)NC1=O (stereo not drawn) [cAGP2, Cyclic(DCys-O2Oc-SVVFGLR-G-DCys)-NH2] (H-C[AEEA]SVVFGLRGC-NH2; disulfide 1-11; configuration not given here) | remained almost without degradation |
| CC(C)CC(NC(=O)CNC(=O)C(Cc1ccccc1)NC(=O)C(NC(=O)C(NC(=O)C(CO)NC(=O)COCCOCCN)C(C)C)C(C)C)C(=O)NC(CCCNC(=N)N)C(N)=O (stereo not drawn) [AGP-O2Oc, O2Oc-SVVFGLR-NH2] (H-[AEEA]SVVFGLR-NH2; configuration not given here) | same level of stability |
